Broadly, the inhibition is the share of the control response that was lost under treatment.

Our source for the inhibition values is US8916599B2, “1H-benz imidazole-5-carboxamides as anti-inflammatory agents” (Orexo AB, priority 2008, dated 2014).

One assay addresses T1, recombinant human mPGES-1 (Homo sapiens, UniProt O14684).
T1 construct: made in house; host or cells: Rosetta E. coli (microsomal/membrane fraction)
T1 sequence (O14684 1-152): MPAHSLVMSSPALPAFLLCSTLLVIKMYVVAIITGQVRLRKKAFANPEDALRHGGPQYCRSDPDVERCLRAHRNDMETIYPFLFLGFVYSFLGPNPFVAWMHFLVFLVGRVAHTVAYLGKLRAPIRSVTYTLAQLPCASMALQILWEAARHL
As to the kind of experiment: mPGES-1 inhibition test (microsomes, PGH2 substrate, HTRF detection of PGE2). Type of assay: biochemical.
Conditions: not given
Put shortly:
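E. coli microsomal enzyme, 0.1 M KPi pH 7.4 + 2.5 mM GSH; cpd (DMSO) 25 min RT; PGH2 1 min; acidic FeCl2 stop. Dilute 750-fold, HTRF (d2/Eu-cryptate anti-PGE2, overnight 4 °C), 665/620 ratio vs PGE2 standard curve.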
Take `COc1cc2[nH]c(Nc3c(Cl)cccc3Cl)nc2cc1C(=O)NCC(F)(F)C(F)(F)C(F)(F)F` [Example 632, N-(2,2,3,3,4,4,4-heptafluoro-butyl)-2-(2,6-dichlorophenylamino)-6-methoxy-1H-benzimidazole-5-carboxamide]: the inhibition at 10 µM was 99%.

Staying with this assay, now noted: inhibition of mPGES-1 at 1 μM (marked in cell).
On to `CC(C)Oc1cc2c(cc1C(=O)NC1CCCCC1)nc(Nc1c(Cl)ccc(Cl)c1F)n2C` [Example 624, 2-(3,6-Dichloro-2-fluoro-phenylamino)-6-isopropoxy-N-cyclohexyl-1-methyl-1H-benzimidazole-5-carboxamide], for which the inhibition at 1 µM amounted to 100%.

With `Cc1ccc(Cl)c(Nc2nc3cc(C(=O)N[C@H]4CC[C@H](C(F)(F)F)CC4)c(F)cc3[nH]2)c1F` [Example 653, 2-(6-Chloro-2-fluoro-3-methyl-phenylamino)-N-(trans-4-trifluoromethyl-cyclohex-1-yl)-6-fluoro-1H-benzimidazole-5-carboxamide], the inhibition at 1 µM turned out to be 92%.

The assay is the same for the next values; noted with them: inhibition of mPGES-1 at 10 μM.
For `O=C(Nc1cccc(C(F)(F)F)n1)c1ccc2[nH]c(Nc3c(Cl)cccc3Cl)nc2c1` [Example 305, 2-(2,6-Dichloro-phenylamino)-1H-benzimidazole-5-carboxylic acid (6-trifluoromethyl-pyridin-2-yl)-amide], the inhibition at 10 µM came to 100%.

Consider `CC(NC(=O)c1ccc2c(c1)nc(Nc1c(Cl)cccc1Cl)n2C)c1ccccn1` (centres unmarked) [Example 242], for which the inhibition at 10 µM came out at 70%.

Turning to `CC(C)(C)[C@H]1CC[C@H](NC(=O)c2cc3nc(Nc4c(Cl)cccc4Cl)[nH]c3cc2F)CC1` [Example 356, N-((1r,4r)-4-tert.-Butylcyclohexyl)-2-(2,6-dichlorophenylamino)-6-fluoro-1H-benzimidazole-5-carboxamide], the inhibition at 10 µM was found to be 100%.

`Cn1c(Nc2c(Cl)cccc2Cl)nc2cc(C(=O)NCCC3CC3)c(F)cc21` [Example 484, N-(2-Cyclopropylethyl)-2-(2,6-dichlorophenylamino)-6-fluoro-1-methyl-1H-benzimidazole-5-carboxamide]: the inhibition at 10 µM worked out at 95%.

As for `O=C(Nc1ccc(Cl)c(Cl)c1Cl)c1ccc2[nH]c(Nc3c(Cl)cccc3Cl)nc2c1` [Example 312, 2-(2,6-Dichloro-phenylamino)-1H-benzimidazole-5-carboxylic acid (2,3,4-trichloro-phenyl)-amide], the inhibition at 10 µM is 100%.

`CS(=O)(=O)NCCn1c(Nc2c(Cl)cccc2Cl)nc2cc(C(=O)Nc3cc(Cl)ccn3)ccc21` [Example 205, 2-(2,6-Dichloro-phenylamino)-1-(2-methanesulfonylamino-ethyl)-1H-benzimidazole-5-carboxylic acid (4-chloro-pyridin-2-yl)-amide]: the inhibition at 10 µM amounted to 97%.

Consider `O=C(NCC1CCCO1)c1ccc2[nH]c(Nc3c(Cl)cccc3Cl)nc2c1` (centres unmarked) [Example 234, 2-(2,6-Dichloro-phenylamino)-1H-benzimidazole-5-carboxylic acid (tetrahydro-furan-2-ylmethyl)-amide], for which the inhibition at 10 µM was 77%.

On to `O=C(Nc1cccc(Cl)n1)c1ccc2[nH]c(Nc3c(Cl)cccc3Cl)nc2c1` [Example 185, 2-(2,6-Dichloro-phenylamino)-1H-benzimidazole-5-carboxylic acid (6-chloro-pyridin-2-yl)-amide], for which the inhibition at 10 µM is 98%.

As for `O=C(Nc1ccc(I)cc1)c1ccc2[nH]c(Nc3c(Cl)cccc3Cl)nc2c1` [Example 84, 2-(2,6-Dichloro-phenylamino)-1H-benzimidazole-5-carboxylic acid (4-iodo-phenyl)-amide], the inhibition at 10 µM amounted to 100%.

For `Cc1ccc(NC(=O)c2ccc3[nH]c(Nc4c(Cl)cccc4Cl)nc3c2)cc1Cl` [Example 286, 2-(2,6-Dichloro-phenylamino)-1H-benzimidazole-5-carboxylic acid (3-chloro-4-methyl-phenyl)-amide], the inhibition at 10 µM is 100%.

As for `O=C(Nc1ccc(Br)cc1)c1cc2nc(Nc3c(Cl)cccc3Cl)[nH]c2cc1OCC(F)(F)F` [Example 590, 2-(2,6-Dichloro-phenylamino)-N-(4-bromo-phenyl)-6-(2,2,2-trifluoroethoxy)-1H-benzimidazole-5-carboxamide], the inhibition at 10 µM came out at 96%.

Consider `O=C(NC1CCC(F)(F)CC1)c1ccc2nc(Nc3c(Cl)cccc3Cl)[nH]c2c1` [Example 147, 2-(2,6-Dichloro-phenylamino)-3H-benzimidazole-5-carboxylic acid (4,4-difluoro-cyclohexyl)-amide], for which the inhibition at 10 µM is 94%.

Regarding `COc1cc2c(cc1C(=O)NCc1ncccc1C1CC1)nc(Nc1c(Cl)cccc1Cl)n2C` [Example 367, N-((3-Cyclopropylpyridin-2-yl)-methyl)-2-(2,6-dichlorophenylamino)-6-methoxy-1-methyl-1H-benzimidazole-5-carboxamide], the inhibition at 10 µM is 100%.

As to `CC1CC(NC(=O)c2ccc3c(c2)nc(Nc2c(Cl)cccc2Cl)n3C)CC(C)(C)C1` (centres unmarked) [Example 241, 2-(2,6-Dichloro-phenylamino)-1-methyl-1H-benzimidazole-5-carboxylic acid (3,3,5-trimethyl-cyclohexyl)-amide], the inhibition at 10 µM is 100%.

With `O=C(NC1CCCC(C(F)(F)F)C1)c1ccc2[nH]c(Nc3c(Cl)cccc3Cl)nc2c1` (centres unmarked) [Example 229, 2-(2,6-Dichloro-phenylamino)-1H-benzimidazole-5-carboxylic acid (3-trifluoromethyl-cyclohexyl)-amide], the inhibition at 10 µM came to 91%.

Regarding `Cn1c(Nc2cc(C(=O)O)ccc2Cl)nc2cc(C(=O)Nc3ccc(Br)cc3)ccc21` [Example 573, 3-(5-(4-Bromophenylcarbamoyl)-1-methyl-1H-benzimidazol-2-yl-amino)-4-chlorobenzoic acid], the inhibition at 10 µM turned out to be 60%.

For the molecule `CS(=O)(=O)c1cccc(NC(=O)c2ccc3[nH]c(Nc4c(Cl)cccc4Cl)nc3c2)c1` [Example 224, 2-(2,6-Dichloro-phenylamino)-1H-benzimidazole-5-carboxylic acid (3-methanesulfonyl-phenyl)-amide], the inhibition at 10 µM is 100%.

`Cn1c(Nc2c(Cl)cccc2Cl)nc2cc(C(=O)Nc3cc(C#N)ccn3)ccc21` [Example 524, N-(4-Cyanopyridin-2-yl)-2-(2,6-dichlorophenylamino)-1-methyl-1H-benzimidazole-5-carboxamide]: the inhibition at 10 µM is 98%.

`CC1CC(NC(=O)c2ccc3[nH]c(Nc4c(Cl)cccc4Cl)nc3c2)CC(C)(C)C1` (centres unmarked) [Example 218, 2-(2,6-Dichloro-phenylamino)-1H-benzimidazole-5-carboxylic acid (3,3,5-trimethyl-cyclohexyl)-amide]: the inhibition at 10 µM stood at 100%.

With `Cn1c(Nc2c(F)cccc2Cl)nc2cc(C(=O)NC3CCC(C)(C)CC3)c(F)cc21` [Example 430, 2-(2-Chloro-6-fluorophenylamino)-N-(4,4-dimethylcyclohexyl)-6-fluoro-1-methyl-1H-benzimidazole-5-carboxamide], the inhibition at 10 µM is 100%.

Turning to `CN(C)c1cccc(Cl)c1Nc1nc2cc(C(=O)Nc3ccc(Br)cc3)ccc2n1C` [Example 499, N-(4-Bromophenyl)-2-(2-chloro-6-(dimethylamino)phenylamino)-1-methyl-1H-benzimidazole-5-carboxamide], the inhibition at 10 µM worked out at 100%.

As to `Cc1c[n+]([O-])c(NC(=O)c2ccc3nc(Nc4c(Cl)cccc4Cl)[nH]c3c2)cc1Cl` [Example 418, 4-Chloro-2-(2-(2,6-dichlorophenylamino)-1H-benzimidazole-6-carboxamido)-5-methylpyridine 1-oxide], the inhibition at 10 µM was 100%.

For `Cn1c(Nc2ccc(C(N)=O)cc2Cl)nc2cc(C(=O)Nc3ccc(Br)cc3)ccc21` [Example 543, N-(4-Bromophenyl)-2-(4-carbamoyl-2-chlorophenylamino)-1-methyl-1H-benzimidazole-5-carboxamide], the inhibition at 10 µM is 91%.

Turning to `O=C(N[C@H]1CC[C@@H](C(F)(F)F)CC1)c1cc2nc(Nc3c(Cl)cccc3Cl)[nH]c2cc1F` [Example 169, 2-(2,6-Dichloro-phenylamino)-6-fluoro-1H-benzimidazole-5-carboxylic acid (cis-4-trifluoromethyl-cyclohexyl)-amide], the inhibition at 10 µM is 94%.

Take `O=C(Nc1ccc(Br)cc1)c1cc2nc(Nc3c(Cl)cc(F)cc3Cl)[nH]c2cc1OCC(F)F` [Example 586, 2-(2,6-Dichloro-4-fluoro-phenylamino)-N-(4-bromo-phenyl)-6-(2,2-difluoroethoxy)-1H-benzimidazole-5-carboxamide]: the inhibition at 10 µM was found to be 100%.

Regarding `Cn1c(Nc2c(Cl)cccc2Cl)nc2cc(C(=O)NC3CCOCC3)ccc21` [Example 252, 2-(2,6-Dichloro-phenylamino)-1-methyl-1H-benzimidazole-5-carboxylic acid (tetrahydro-pyran-4-yl)-amide], the inhibition at 10 µM was determined as 68%.

Consider `O=C(NC1COc2ccccc2C1)c1ccc2[nH]c(Nc3c(Cl)cccc3Cl)nc2c1` (centres unmarked) [Example 153, 2-(2,6-Dichloro-phenylamino)-1H-benzimidazole-5-carboxylic acid chroman-3-ylamide], for which the inhibition at 10 µM amounted to 98%.

Consider `COc1cccc(NC(=O)c2ccc3nc(Nc4c(Cl)cccc4Cl)[nH]c3c2)n1` [Example 194, 2-(2,6-Dichloro-phenylamino)-3H-benzimidazole-5-carboxylic acid (6-methoxy-pyridin-2-yl)-amide], for which the inhibition at 10 µM turned out to be 98%.

As for `O=C(Nc1cc(Cl)ccn1)c1ccc2c(c1)nc(Nc1c(Cl)cccc1Cl)n2CCC(=O)N1CCOCC1` [Example 264, 2-(2,6-Dichloro-phenylamino)-1-(3-morpholin-4-yl-3-oxo-propyl)-1H-benzimidazole-5-carboxylic acid (4-chloro-pyridin-2-yl)-amide], the inhibition at 10 µM was determined as 90%.
